Test results as given in US20240018161A1, “MODULATORS OF CYSTIC FIBROSIS TRANSMEMBRANE CONDUCTANCE REGULATOR” (VERTEX PHARMACEUTICALS INCORPORATED, priority 2020, published 2024).
Like-named read-outs stand apart in the source and are kept apart here. Blank lines part the entries; values can stand above or below the molecule they belong to.

Legend:
[1] = 13-membered ring, NaH, DMF
[2] = target: CFTR-mediated chloride transport in human intestinal epithelial enteroid cells (Homo sapiens, UniProt P13569); assay: Membrane potential dye, Enteroid Assay A; format: cell-based; conditions: for EC50: read-out: Ent. A EC50
Outline: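 Membrane potential dye (20 μM methyl oxonol, with 30 μM CaCCinh-A01 and 30 μM Chicago Sky Blue) loaded 25 min at room temperature into ROCK-inhibitor-seeded human enteroid cells. Chloride-free stimulation buffer triggered transport, followed by 15 min fluorescence. % Activity relative to 3 μM/3 μM/300 nM triple-combination control.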

Sequence of CFTR-mediated chloride transport in human intestinal epithelial enteroid cells (P13569 with tags, fused parts or gaps DEL508-508): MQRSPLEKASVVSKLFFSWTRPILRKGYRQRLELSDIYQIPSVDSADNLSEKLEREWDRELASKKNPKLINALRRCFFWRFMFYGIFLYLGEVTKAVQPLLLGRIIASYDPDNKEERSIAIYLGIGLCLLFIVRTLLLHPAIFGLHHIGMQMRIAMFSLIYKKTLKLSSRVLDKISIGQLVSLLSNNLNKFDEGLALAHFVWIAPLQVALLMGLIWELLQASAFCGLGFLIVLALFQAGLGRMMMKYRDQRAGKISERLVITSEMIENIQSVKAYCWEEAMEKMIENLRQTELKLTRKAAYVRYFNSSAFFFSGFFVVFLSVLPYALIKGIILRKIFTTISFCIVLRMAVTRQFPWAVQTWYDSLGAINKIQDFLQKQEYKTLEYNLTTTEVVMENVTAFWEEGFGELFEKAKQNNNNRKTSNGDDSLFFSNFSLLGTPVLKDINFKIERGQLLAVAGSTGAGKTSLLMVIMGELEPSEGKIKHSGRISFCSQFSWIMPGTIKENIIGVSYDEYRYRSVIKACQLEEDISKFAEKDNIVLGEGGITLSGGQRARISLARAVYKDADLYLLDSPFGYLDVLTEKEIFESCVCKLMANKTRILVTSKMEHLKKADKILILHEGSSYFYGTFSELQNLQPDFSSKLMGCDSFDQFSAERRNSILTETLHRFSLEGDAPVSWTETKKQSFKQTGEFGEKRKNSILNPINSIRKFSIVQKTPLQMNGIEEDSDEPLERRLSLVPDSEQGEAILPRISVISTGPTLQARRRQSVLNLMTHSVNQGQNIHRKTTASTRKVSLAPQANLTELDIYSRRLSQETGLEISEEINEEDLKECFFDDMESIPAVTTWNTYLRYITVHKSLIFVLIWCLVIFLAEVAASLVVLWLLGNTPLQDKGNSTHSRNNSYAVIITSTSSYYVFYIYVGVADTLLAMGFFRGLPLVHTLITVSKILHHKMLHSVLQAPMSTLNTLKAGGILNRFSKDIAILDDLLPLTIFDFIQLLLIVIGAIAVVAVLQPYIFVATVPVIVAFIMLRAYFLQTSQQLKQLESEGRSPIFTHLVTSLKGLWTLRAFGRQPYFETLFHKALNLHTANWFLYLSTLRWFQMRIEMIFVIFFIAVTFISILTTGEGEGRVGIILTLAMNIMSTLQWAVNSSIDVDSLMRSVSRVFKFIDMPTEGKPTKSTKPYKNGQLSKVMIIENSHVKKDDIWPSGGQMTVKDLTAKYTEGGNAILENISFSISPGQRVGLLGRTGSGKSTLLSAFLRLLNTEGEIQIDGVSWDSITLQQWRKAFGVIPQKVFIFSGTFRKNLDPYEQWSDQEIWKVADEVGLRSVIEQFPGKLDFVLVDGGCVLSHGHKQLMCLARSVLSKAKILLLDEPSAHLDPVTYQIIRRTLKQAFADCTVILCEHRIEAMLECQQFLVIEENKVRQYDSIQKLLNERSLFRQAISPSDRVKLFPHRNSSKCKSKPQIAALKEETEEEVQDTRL

Structure (SMILES): Cc1cccc(C)c1-c1cc2nc(n1)NS(=O)(=O)c1cccc(c1)C(=O)N1CCN(C(=O)OC(C)(C)C)CC(C1)O2 (stereo not drawn) [Compound 43, tert-Butyl 12-(2,6-dimethylphenyl)-2,8,8-trioxo-15-oxa-8λ^6-thia-1,9,11,18,22-pentaazatetracyclo[14.4.1.13,7.110,14]tricosa-3(23),4,6,10(22),11,13-hexaene-18-carboxylate]
ring closure, isolated yield ([1]; from Cc1cccc(C)c1-c1cc(Cl)nc(NS(=O)(=O)c2cccc(C(=O)N3CCN(C(=O)OC(C)(C)C)CC(O)C3)c2)n1, snar bond, 15.5 mM, 25.0 °C, 16.0 h): 56%
EC50 ([2]; enteroid cells incubated with test compound 18-24 hours, acute 10 μM forskolin and 300 nM N-[2,4-bis(1,1-dimethylethyl)-5-hydroxyphenyl]-1,4-dihydro-4-oxoquinoline-3-carboxamide): < 1 µM
Ent. A Max Activity (%) ([2]; percentage of chloride transport of triple combination control (3 μM N-[(6-amino-2-pyridyl)sulfonyl]-6-(3-fluoro-5-isobutoxy-phenyl)-2-[(4S)-2,2,4-trimethylpyrrolidin-1-yl]pyridine-3-carboxamide based)): +++ (+++ is >60%)

Structure (SMILES): Cc1cccc(C)c1-c1cc2nc(n1)NS(=O)(=O)c1cccc(c1)CN1CC(CN(C(=O)OC(C)(C)C)CC1=O)O2 (stereo not drawn) [Compound 77, tert-Butyl 12-(2,6-dimethylphenyl)-8,8,20-trioxo-15-oxa-8λ^6-thia-1,9,11,18,22-pentaazatetracyclo[14.4.1.13,7.110,14]tricosa-3(23),4,6,10,12,14(22)-hexaene-18-carboxylate]
ring closure, isolated yield ([1]; from Cc1cccc(C)c1-c1cc(OC2CNC(=O)CN(C(=O)OC(C)(C)C)C2)nc(NS(=O)(=O)c2cccc(CBr)c2)n1, other bond, 19.7 mM, 0.0 °C, 0.5 h): 68%
Ent. A Max Activity (%) ([2]; Enteroid Assay A): ++ (++ is 30-60%)
EC50 ([2]; Enteroid Assay A): < 1 µM

Structure (SMILES): Cc1cccc(C)c1-c1cc2nc(n1)NS(=O)(=O)c1cccc(c1)C(=O)N1CCN(Cc3ccccc3)C[C@@H](O2)[C@H]1CC(C)C [Compound 84, (16R,21R)-18-Benzyl-12-(2,6-dimethylphenyl)-21-(2-methylpropyl)-15-oxa-8λ^6-thia-1,9,11,18,22-pentaazatetracyclo[14.4.1.13,7.110,14]tricosa-3(23),4,6,10,12,14(22)-hexaene-2,8,8-trione]
ring closure, isolated yield ([1]; from Cc1cccc(C)c1-c1cc(Cl)nc(NS(=O)(=O)c2cccc(C(=O)N3CCN(Cc4ccccc4)C[C@H](O)[C@H]3CC(C)C)c2)n1, snar bond, 16.6 mM, 25.0 °C, 72.0 h): 35%
Ent. A Max Activity (%) ([2]; Enteroid Assay A): +++ (+++ is >600%)
EC50 ([2]; Enteroid Assay A): < 1 µM

Structure (SMILES): Cc1cccc(C)c1-c1cc2nc(n1)NS(=O)(=O)c1cccc(c1)C(=O)N1CCN(Cc3ccccc3)C[C@H](O2)[C@H]1CC(C)C [Compound 86, (16S,21R)-18-Benzyl-12-(2,6-dimethylphenyl)-21-(2-methylpropyl)-15-oxa-8λ^6-thia-1,9,11,18,22-pentaazatetracyclo[14.4.1.13,7.110,14]tricosa-3(23),4,6,10(22),11,13-hexaene-2,8,8-trione]
ring closure, isolated yield ([1]; from Cc1cccc(C)c1-c1cc(Cl)nc(NS(=O)(=O)c2cccc(C(=O)N3CCN(Cc4ccccc4)C[C@@H](O)[C@H]3CC(C)C)c2)n1, snar bond, 16.5 mM, 25.0 °C, 17.0 h): 5%
Ent. A Max Activity (%) ([2]; Enteroid Assay A): +++ (+++ is >600%)
EC50 ([2]; Enteroid Assay A): < 1 µM

Structure (SMILES): Cc1cccc(C)c1-c1cc2nc(n1)NS(=O)(=O)c1cccc(c1)C(=O)N1C[C@@H](CN(C(=O)OC(C)(C)C)C[C@@H]1CC(C)C)O2 [Compound 96, tert-Butyl (16S,20S)-12-(2,6-dimethylphenyl)-20-(2-methylpropyl)-2,8,8-trioxo-15-oxa-8λ^6-thia-1,9,11,18,22-pentaazatetracyclo[14.4.1.13,7.110,14]tricosa-3(23),4,6,10(22),11,13-hexaene-18-carboxylate]
ring closure, isolated yield ([1]; from Cc1cccc(C)c1-c1cc(Cl)nc(NS(=O)(=O)c2cccc(C(=O)N3C[C@H](O)CN(C(=O)OC(C)(C)C)C[C@@H]3CC(C)C)c2)n1, snar bond, 29.2 mM, 25.0 °C, 5.08 h): 66%
Ent. A Max Activity (%) ([2]; Enteroid Assay A): ++ (++ is 30-60%)
EC50 ([2]; Enteroid Assay A): < 1 µM

Structure (SMILES): Cc1cccc(C)c1-c1cc2nc(n1)NS(=O)(=O)c1cccc(c1)C(=O)N1C[C@H](CN(C(=O)OC(C)(C)C)C[C@@H]1CC(C)C)O2 [Compound 100, tert-Butyl (16R,20S)-12-(2,6-dimethylphenyl)-20-(2-methylpropyl)-2,8,8-trioxo-15-oxa-8λ^6-thia-1,9,11,18,22-pentaazatetracyclo[14.4.1.13,7.110,14]tricosa-3(23),4,6,10(22),11,13-hexaene-18-carboxylate]
ring closure, isolated yield ([1]; from Cc1cccc(C)c1-c1cc(Cl)nc(NS(=O)(=O)c2cccc(C(=O)N3CC(O)CN(C(=O)OC(C)(C)C)C[C@@H]3CC(C)C)c2)n1, snar bond, 31.2 mM, 25.0 °C, 3.08 h): 35%
Ent. A Max Activity (%) ([2]; Enteroid Assay A): + (+ is <30%)

Structure (SMILES): Cc1cccc(C)c1-c1cc2nc(n1)NS(=O)(=O)c1cccc(c1)C(=O)N1C[C@@H](CN(C(=O)OC(C)(C)C)C[C@H]1CC(C)C)O2 [Compound 102, tert-Butyl (16S,20R)-12-(2,6-dimethylphenyl)-20-(2-methylpropyl)-2,8,8-trioxo-15-oxa-8λ^6-thia-1,9,11,18,22-pentaazatetracyclo[14.4.1.13,7.110,14]tricosa-3(23),4,6,10(22),11,13-hexaene-18-carboxylate]
ring closure, isolated yield ([1]; from Cc1cccc(C)c1-c1cc(Cl)nc(NS(=O)(=O)c2cccc(C(=O)N3C[C@H](O)CN(C(=O)OC(C)(C)C)C[C@H]3CC(C)C)c2)n1, snar bond, 30.8 mM, 4.17 h): 34%
Ent. A Max Activity (%) ([2]; Enteroid Assay A): ++ (++ is 30-60%)
EC50 ([2]; Enteroid Assay A): < 1 µM

Structure (SMILES): Cc1cccc(C)c1-c1cc2nc(n1)NS(=O)(=O)c1cccc(c1)C(=O)N1C[C@H](CN(C(=O)OC(C)(C)C)C[C@H]1CC(C)C)O2 [Compound 106, tert-Butyl (16R,20R)-12-(2,6-dimethylphenyl)-20-(2-methylpropyl)-2,8,8-trioxo-15-oxa-8λ^6-thia-1,9,11,18,22-pentaazatetracyclo[14.4.1.13,7.110,14]tricosa-3(23),4,6,10(22),11,13-hexaene-18-carboxylate]
ring closure, isolated yield ([1]; from Cc1cccc(C)c1-c1cc(Cl)nc(NS(=O)(=O)c2cccc(C(=O)N3C[C@@H](O)CN(C(=O)OC(C)(C)C)C[C@H]3CC(C)C)c2)n1, snar bond, 31.3 mM, 2.17 h): 45%
Ent. A Max Activity (%) ([2]; Enteroid Assay A): + (+ is <30%)

Structure (SMILES): Cc1cccc(C)c1-c1cc2nc(n1)NS(=O)(=O)c1cccc(c1)C(=O)N1C[C@@H](CN(Cc3ccccc3)[C@@H](CC(C)C)C1)O2 [Compound 109, (16R,19S)-18-Benzyl-12-(2,6-dimethylphenyl)-19-(2-methylpropyl)-15-oxa-8λ^6-thia-1,9,11,18,22-pentaazatetracyclo[14.4.1.13,7.110,14]tricosa-3(23),4,6,10(22),11,13-hexaene-2,8,8-trione]
ring closure, isolated yield ([1]; from Cc1cccc(C)c1-c1cc(Cl)nc(NS(=O)(=O)c2cccc(C(=O)N3CC(O)CN(Cc4ccccc4)[C@@H](CC(C)C)C3)c2)n1, snar bond, 30.0 mM, 0.0 °C, 7.0 h): 28%
Ent. A Max Activity (%) ([2]; Enteroid Assay A): +++ (+++ is >600%)
EC50 ([2]; Enteroid Assay A): < 1 µM

More lines, main results first:

Ent. A Max Activity (%) ([2]; Enteroid Assay A): + (+ is <30%)
Structure (SMILES): Cc1cccc(C)c1-c1cc2nc(n1)NS(=O)(=O)c1cccc(c1)C(=O)N1C[C@H](CN(Cc3ccccc3)[C@H](CC(C)C)C1)O2 [Compound 111, (16S,19R)-18-Benzyl-12-(2,6-dimethylphenyl)-19-(2-methylpropyl)-15-oxa-8λ^6-thia-1,9,11,18,22-pentaazatetracyclo[14.4.1.13,7.110,14]tricosa-3(23),4,6,10(22),11,13-hexaene-2,8,8-trione]
ring closure, isolated yield ([1]; from Cc1cccc(C)c1-c1cc(Cl)nc(NS(=O)(=O)c2cccc(C(=O)N3C[C@@H](O)CN(Cc4ccccc4)[C@H](CC(C)C)C3)c2)n1, snar bond, 28.6 mM, 4.6 h): 57%

Ent. A Max Activity (%) ([2]; Enteroid Assay A): +++ (+++ is >600%)
EC50 ([2]; Enteroid Assay A): < 1 µM
Structure (SMILES): Cc1cccc(C)c1-c1cc2nc(n1)NS(=O)(=O)c1cccc(c1)C(=O)N1CCN(C(=O)OC(C)(C)C)[C@H](CC(C)C)[C@H](C1)O2 [Compound 114, tert-Butyl (16S,17R)-12-(2,6-dimethylphenyl)-17-(2-methylpropyl)-2,8,8-trioxo-15-oxa-8λ^6-thia-1,9,11,18,22-pentaazatetracyclo[14.4.1.13,7.110,14]tricosa-3(23),4,6,10(22),11,13-hexaene-18-carboxylate]
ring closure, isolated yield ([1]; from Cc1cccc(C)c1-c1cc(Cl)nc(NS(=O)(=O)c2cccc(C(=O)N3CCN(C(=O)OC(C)(C)C)[C@H](CC(C)C)[C@@H](O)C3)c2)n1, snar bond, 30.9 mM, 1.67 h): 34%

Ent. A Max Activity (%) ([2]; Enteroid Assay A): ++ (++ is 30-60%)
EC50 ([2]; Enteroid Assay A): < 1 µM
Structure (SMILES): Cc1cccc(C)c1-c1cc2nc(n1)NS(=O)(=O)c1cccc(c1)C(=O)N1CCN(C(=O)OC(C)(C)C)[C@H](CC(C)C)[C@@H](C1)O2 [Compound 115, tert-Butyl (16R,17R)-12-(2,6-dimethylphenyl)-17-(2-methylpropyl)-2,8,8-trioxo-15-oxa-8λ^6-thia-1,9,11,18,22-pentaazatetracyclo[14.4.1.13,7.110,14]tricosa-3(23),4,6,10(22),11,13-hexaene-18-carboxylate]
ring closure, isolated yield ([1]; from Cc1cccc(C)c1-c1cc(Cl)nc(NS(=O)(=O)c2cccc(C(=O)N3CCN(C(=O)OC(C)(C)C)[C@H](CC(C)C)[C@H](O)C3)c2)n1, snar bond, 31.6 mM, 1.67 h): 67%

Ent. A Max Activity (%) ([2]; Enteroid Assay A): ++ (++ is 30-60%)
EC50 ([2]; Enteroid Assay A): < 1 µM
Structure (SMILES): Cc1cccc(C)c1-c1cc2nc(n1)NS(=O)(=O)c1cccc(c1)C(=O)N1CCN(C(=O)OC(C)(C)C)[C@@H](CC(C)C)[C@@H](C1)O2 [Compound 116, tert-Butyl (16R,17S)-12-(2,6-dimethylphenyl)-17-(2-methylpropyl)-2,8,8-trioxo-15-oxa-8λ^6-thia-1,9,11,18,22-pentaazatetracyclo[14.4.1.13,7.110,14]tricosa-3(23),4,6,10(22),11,13-hexaene-18-carboxylate]
ring closure, isolated yield ([1]; from Cc1cccc(C)c1-c1cc(Cl)nc(NS(=O)(=O)c2cccc(C(=O)N3CCN(C(=O)OC(C)(C)C)[C@@H](CC(C)C)[C@H](O)C3)c2)n1, snar bond, 31.0 mM, 5.17 h): 36%
